# Patent US9902702B2, “Spirocycloheptanes as inhibitors of rock” (BRISTOL-MYERS SQUIBB COMPANY, priority 2014, dated 2018)
# pIC50: −log10 of the molar value.
# Target: ROCK2 (Homo sapiens, UniProt O75116)
# Assay: ROCK assay: phosphorylation of FITC peptide substrate, LABCHIP 3000 mobility shift
# Format: biochemical
# Conditions: 5 μM ATP, 1.5 μM peptide substrate; read-out: ROCK2 Activity (ROCK IC50 range)
# Protocol: The effectiveness of compounds of the present invention as ROCK inhibitors can be determined in a 30 μL assay containing 20 mM HEPES, pH 7.5, 20 mM MgCl2, 0.015% Brij-35, 4 mM DTT, 5 μM ATP and 1.5 μM peptide substrate (FITC-AHA-AKRRRLSSLRA-OH). Compounds were dissolved in DMSO so that the final concentration of DMSO was <2%, and the reaction was initiated with Rho kinase variants. After incubation, the reaction was terminated by the addition of EDTA and the phosphorylated and non-phosphorylated peptides separated using a LABCHIP® 3000 Reader (Caliper Life Sciences). […] Compounds were tested in dose-response format, and the inhibition of kinase activity was calculated at each concentration of compound. The inhibition data were fit using a curve-fitting program to determine the IC50; i.e., the concentration of compound required to inhibit 50% of kinase activity.
# Representative Examples were tested in the ROCK assay described above and found having ROCK inhibitory activity.
# ROCK2, sequence (O75116 whole entry, species assumed): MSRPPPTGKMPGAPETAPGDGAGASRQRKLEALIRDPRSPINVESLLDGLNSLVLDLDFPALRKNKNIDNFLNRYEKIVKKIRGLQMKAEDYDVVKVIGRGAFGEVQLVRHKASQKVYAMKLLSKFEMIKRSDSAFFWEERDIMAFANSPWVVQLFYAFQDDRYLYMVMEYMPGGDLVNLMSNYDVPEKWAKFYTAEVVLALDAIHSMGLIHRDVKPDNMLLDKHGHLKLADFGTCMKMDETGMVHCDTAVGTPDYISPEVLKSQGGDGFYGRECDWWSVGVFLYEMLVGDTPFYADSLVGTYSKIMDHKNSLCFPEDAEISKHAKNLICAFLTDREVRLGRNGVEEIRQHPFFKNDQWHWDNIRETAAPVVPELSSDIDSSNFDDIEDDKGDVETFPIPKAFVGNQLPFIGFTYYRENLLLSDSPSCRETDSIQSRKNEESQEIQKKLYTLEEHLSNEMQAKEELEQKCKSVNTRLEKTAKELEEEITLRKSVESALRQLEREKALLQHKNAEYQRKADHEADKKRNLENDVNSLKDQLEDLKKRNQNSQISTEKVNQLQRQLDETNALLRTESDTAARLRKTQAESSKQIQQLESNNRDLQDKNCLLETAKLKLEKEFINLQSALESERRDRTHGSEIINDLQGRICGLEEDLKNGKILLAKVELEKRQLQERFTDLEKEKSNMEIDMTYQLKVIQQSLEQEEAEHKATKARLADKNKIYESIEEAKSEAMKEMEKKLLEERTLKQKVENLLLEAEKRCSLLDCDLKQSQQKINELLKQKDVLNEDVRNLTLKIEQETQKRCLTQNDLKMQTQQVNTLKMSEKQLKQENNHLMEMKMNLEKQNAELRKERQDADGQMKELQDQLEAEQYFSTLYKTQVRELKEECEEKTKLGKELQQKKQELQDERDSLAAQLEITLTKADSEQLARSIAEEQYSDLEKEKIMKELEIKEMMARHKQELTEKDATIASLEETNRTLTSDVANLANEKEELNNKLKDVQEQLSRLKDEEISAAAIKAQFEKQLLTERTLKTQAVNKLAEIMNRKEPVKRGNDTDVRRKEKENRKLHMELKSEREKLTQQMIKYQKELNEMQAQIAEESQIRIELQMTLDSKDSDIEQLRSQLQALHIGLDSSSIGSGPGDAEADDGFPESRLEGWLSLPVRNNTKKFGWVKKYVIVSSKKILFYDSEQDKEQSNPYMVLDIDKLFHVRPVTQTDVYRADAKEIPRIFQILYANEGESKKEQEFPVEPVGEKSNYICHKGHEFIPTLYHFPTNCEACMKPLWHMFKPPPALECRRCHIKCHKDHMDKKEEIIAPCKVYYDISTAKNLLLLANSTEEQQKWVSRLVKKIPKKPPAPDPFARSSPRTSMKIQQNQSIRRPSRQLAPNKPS
row,SMILES,pIC50
1,"Cc1nc(N2CCCC2)sc1C(=O)NC1CC2(C1)CC(c1n[nH]c(=O)c3ccccc13)C2 [Example 35, 4-methyl-N-[(aR)-6-(4-oxo-3,4-dihydrophthalazin-1-yl)spiro[3.3]heptan-2-yl]-2-(pyrrolidin-1-yl)-1,3-thiazole-5-carboxamide]",7.82 to 8.29
2,"Cc1nc(N2CCC(F)C2)sc1C(=O)NC1CC2(C1)CC(c1n[nH]c(=O)c3ccccc13)C2 [Example 36, 2-[(3S)-3-fluoropyrrolidin-1-yl]-4-methyl-N-[(aR)-6-(4-oxo-3,4-dihydrophthalazin-1-y)spiro[3.3]heptan-2-yl]-1,3-thiazole-5-carboxamide]",8.30 to 8.70
3,"Cc1nc(N2CCC(F)C2)sc1C(=O)NC1CC2(C1)CC(c1n[nH]c(=O)c3ccccc13)C2 [Example 37, 2-[(3R)-3-fluoropyrrolidin-1-yl]-4-methyl-N-[(aR)-6-(4-oxo-3,4-dihydrophthalazin-1-yl)spiro[3.3]heptan-2-yl]-1,3-thiazole-5-carboxamide]",7.82 to 8.29
4,"Cc1nc(N2CCC(C#N)C2)sc1C(=O)NC1CC2(C1)CC(c1n[nH]c(=O)c3ccccc13)C2 [Example 38, 2-[(3S)-3-cyanopyrrolidin-1-yl]-4-methyl-N-[(aR)-6-(4-oxo-3,4-dihydrophthalazin-1-yl)spiro[3.3]heptan-2-yl]-1,3-thiazole-5-carboxamide]",7.82 to 8.29
5,"Cc1nc(N2CCC(C#N)C2)sc1C(=O)NC1CC2(C1)CC(c1n[nH]c(=O)c3ccccc13)C2 [Example 39, 2-[(3R)-3-cyanopyrrolidin-1-yl]-4-methyl-N-[(aR)-6-(4-oxo-3,4-dihydrophthalazin-1-yl)spiro[3.3]heptan-2-yl]-1,3-thiazole-5-carboxamide]",7.82 to 8.29
6,"Cc1nc(N2CCC3CC32)sc1C(=O)NC1CC2(C1)CC(c1n[nH]c(=O)c3ccccc13)C2 [Example 40, rel-2-[(1S,5R)-2-azabicyclo[3.1.0]hexan-2-yl]-4-methyl-N-[(aR)-6-(4-oxo-3,4-dihydrophthalazin-1-yl)spiro[3.3]heptan-2-yl]-1,3-thiazole-5-carboxamide]",8.30 to 8.70
7,"Cc1nc(N2CCC(F)(F)C2)sc1C(=O)NC1CC2(C1)CC(c1n[nH]c(=O)c3ccccc13)C2 [Example 41, 2-(3,3-difluoropyrrolidin-1-yl)-4-methyl-N-[(aR)-6-(4-oxo-3,4-dihydrophthalazin-1-yl)spiro[3.3]heptan-2-yl]-1,3-thiazole-5-carboxamide]",8.30 to 8.70
8,"Cc1nc(NC2CC2)sc1C(=O)NC1CC2(C1)CC(c1n[nH]c(=O)c3ccccc13)C2 [Example 42, 2-(cyclopropylamino)-4-methyl-N-[(aR)-6-(4-oxo-3,4-dihydrophthalazin-1-yl)spiro[3.3]heptan-2-yl]-1,3-thiazole-5-carboxamide]",7.00 to 7.82
9,"O=c1[nH]nc([C@H]2CC3(C[C@H](Nc4nnc(-c5ccccc5)s4)C3)C2)c2ccccc12 (stereo partly drawn) [Example 43, 4-((aR)-6-((5-Phenyl-1,3,4-thiadiazol-2-yl)amino)spiro[3.3]heptan-2-yl)phthalazin-1(2H)-one(2H)-one]",7.82 to 8.29
10,"O=c1[nH]nc([C@H]2CC3(C[C@H](Nc4ncc(-c5ccccc5)o4)C3)C2)c2ccccc12 (stereo partly drawn) [Example 44, 4-((aR)-6-((5-phenyloxazol-2-yl)amino)spiro[3.3]heptan-2-yl)phthalazin-1(2H)-one(2H)-one]",5.68 to 7.00
11,"O=c1[nH]nc([C@H]2CC3(C[C@H](Nc4nncc5ccccc45)C3)C2)c2ccccc12 (stereo partly drawn) [Example 45, 4-((aR)-6-(Phthalazin-1-ylamino)spiro[3.3]heptan-2-yl)phthalazin-1(2H)-one(2H)-one]",7.82 to 8.29
12,"O=C(C1CC2(C1)CC(c1n[nH]c(=O)c3ccccc13)C2)N1CCc2ccccc21 (stereo not drawn) [Example 46, 4-(6-(Indoline-1-carbonyl)spiro[3.3]heptan-2-yl)phthalazin-1(2H)-one(2H)-one]",5.68 to 7.00
13,"O=C(C1CC2(C1)CC(c1n[nH]c(=O)c3ccccc13)C2)N1Cc2ccccc2C1 (stereo not drawn) [Example 47, 4-[6-(2,3-dihydro-1H-isoindole-2-carbonyl)spiro[3.3]heptan-2-yl]-1,2-dihydrophthalazin-1-one]",5.68 to 7.00
14,"Cc1nnc(NC(=O)C2CC3(C2)CC(c2n[nH]c(=O)c4ccccc24)C3)s1 (stereo not drawn) [Example 48, N-(5-methyl-1,3,4-thiadiazol-2-yl)-6-(4-oxo-3,4-dihydrophthalazin-1-yl)spiro[3.3]heptane-2-carboxamide]",5.68 to 7.00
15,"Cc1cc(NC(=O)C2CC3(C2)CC(c2n[nH]c(=O)c4ccccc24)C3)no1 (stereo not drawn) [Example 49, N-(5-methyl-1,2-oxazol-3-yl)-6-(4-oxo-3,4-dihydrophthalazin-1-yl)spiro[3.3]heptane-2-carboxamide]",5.68 to 7.00
16,"[H][C@]1(c2n[nH]c(=O)c3ccccc32)C[C@]2(C[C@@H](NC(=O)N3CCc4ccccc43)C2)C1 (stereo partly drawn) [Example 50, N-((aR)-6-(4-Oxo-3,4-dihydrophthalazin-1-yl)spiro[3.3]heptan-2-yl)indoline-1-carboxamide]",7.82 to 8.29
17,"O=C(N[C@H]1CC2(C1)C[C@H](c1n[nH]c(=O)c3ccccc31)C2)N1Cc2ccccc2C1 (stereo partly drawn) [Example 51, N-((aR)-6-(4-Oxo-3,4-dihydrophthalazin-1-yl)spiro[3.3]heptan-2-yl)isoindoline-2-carboxamide]",7.82 to 8.29
18,"O=C(CC1CC2(C1)CC(c1n[nH]c(=O)c3ccccc13)C2)N1CCc2ccccc21 (stereo not drawn) [Example 52, 4-(6-(2-(Indolin-1-yl)-2-oxoethyl)spiro[3.3]heptan-2-yl)phthalazin-1(2H)-one]",7.00 to 7.82
19,"Cc1sc(N2CC[C@@H](F)C2)nc1C(=O)N[C@H]1CC2(C1)C[C@H](c1n[nH]c(=O)c3ccccc31)C2 (stereo partly drawn) [Example 53, 2-((R)-3-fluoropyrrolidin-1-yl)-5-methyl-N-((aR)-6-(4-oxo-3,4-dihydrophthalazin-1-yl)spiro[3.3]heptan-2-yl)thiazole-4-carboxamide]",8.30 to 8.70
20,"Cc1sc(N2CCC(F)(F)C2)nc1C(=O)NC1CC2(C1)CC(c1n[nH]c(=O)c3ccccc13)C2 [Example 54, 2-(3,3-difluoropyrrolidin-1-yl)-5-methyl-N-((aR)-6-(4-oxo-3,4-dihydrophthalazin-1-yl)spiro[3.3]heptan-2-yl)thiazole-4-carboxamide]",8.70 to 9.70
21,"Cc1sc(N2CCC(C#N)C2)nc1C(=O)NC1CC2(C1)CC(c1n[nH]c(=O)c3ccccc13)C2 [Example 55, 2-((S)-3-cyanopyrrolidin-1-yl)-5-methyl-N-((aR)-6-(4-oxo-3,4-dihydrophthalazin-1-yl)spiro[3.3]heptan-2-yl)thiazole-4-carboxamide]",7.82 to 8.29
22,"Cc1sc(N2CCC(C#N)C2)nc1C(=O)NC1CC2(C1)CC(c1n[nH]c(=O)c3ccccc13)C2 [Example 56, 2-((R)-3-cyanopyrrolidin-1-yl)-5-methyl-N-((aR)-6-(4-oxo-3,4-dihydrophthalazin-1-yl)spiro[3.3]heptan-2-yl)thiazole-4-carboxamide]",7.82 to 8.29
23,"Cc1sc(NC2CC(F)(F)C2)nc1C(=O)NC1CC2(C1)CC(c1n[nH]c(=O)c3ccccc13)C2 [Example 57, 2-((3,3-difluorocyclobutyl)amino)-5-methyl-N-((aR)-6-(4-oxo-3,4-dihydrophthalazin-1-yl)spiro[3.3]heptan-2-yl)thiazole-4-carboxamide]",7.82 to 8.29
24,"Cc1sc(N2CCC(F)C2)nc1C(=O)NC1CC2(C1)CC(c1n[nH]c(=O)c3ccccc13)C2 [Example 58, 2-((S)-3-fluoropyrrolidin-1-yl)-5-methyl-N-((aR)-6-(4-oxo-3,4-dihydrophthalazin-1-yl)spiro[3.3]heptan-2-yl)thiazole-4-carboxamide]",8.30 to 8.70
25,"Cc1sc(N2CCCC2C(F)(F)F)nc1C(=O)NC1CC2(C1)CC(c1n[nH]c(=O)c3ccccc13)C2 [Example 59, 5-methyl-N-((aR)-6-(4-oxo-3,4-dihydrophthalazin-1-yl)spiro[3.3]heptan-2-yl)-2-((S)-2-(trifluoromethyl)pyrrolidin-1-yl)thiazole-4-carboxamide]",7.82 to 8.29
26,"Cc1sc(N2CCCC2C(F)(F)F)nc1C(=O)NC1CC2(C1)CC(c1n[nH]c(=O)c3ccccc13)C2 [Example 60, 5-methyl-N-((aR)-6-(4-oxo-3,4-dihydrophthalazin-1-yl)spiro[3.3]heptan-2-yl)-2-((R)-2-(trifluoromethyl)pyrrolidin-1-yl)thiazole-4-carboxamide]",7.00 to 7.82
27,"COc1ccc2c(c1)c(C(=O)NC1CC3(C1)CC(c1n[nH]c(=O)c4ccccc14)C3)nn2CC(C)(C)O [Example 61, 1-(2-hydroxy-2-methylpropyl)-5-methoxy-N-((aR)-6-(4-oxo-3,4-dihydrophthalazin-1-yl)spiro[3.3]heptan-2-yl)-1H-indazole-3-carboxamide]",8.30 to 8.70
28,"COc1ccc2c(C(=O)NC3CC4(C3)CC(c3n[nH]c(=O)c5ccccc35)C4)nn(CC(C)(C)O)c2c1 [Example 62, 1-(2-hydroxy-2-methylpropyl)-6-methoxy-N-((aR)-6-(4-oxo-3,4-dihydrophthalazin-1-yl)spiro[3.3]heptan-2-yl)-1H-indazole-3-carboxamide]",8.70 to 9.70
29,"COc1ccc2c(C(=O)NC3CC4(C3)CC(c3n[nH]c(=O)c5ccccc35)C4)cnn2c1 [Example 63, 6-methoxy-N-((aR)-6-(4-oxo-3,4-dihydrophthalazin-1-yl)spiro[3.3]heptan-2-yl)pyrazolo[1,5-a]pyridine-3-carboxamide]",8.70 to 9.70
30,"COc1ccn2ncc(C(=O)NC3CC4(C3)CC(c3n[nH]c(=O)c5ccccc35)C4)c2c1 [Example 64, 5-methoxy-N-((aR)-6-(4-oxo-3,4-dihydrophthalazin-1-yl)spiro[3.3]heptan-2-yl)pyrazolo[1,5-a]pyridine-3-carboxamide]",7.82 to 8.29
